From patent US6388127B1, “Process for preparing cyclic thioamides” (Pfizer INC, priority 1999, dated 2002)

melting point: 81 to 83 °C
Structure (SMILES): O=C1CSCCN1c1ccc(Cl)c(Cl)c1 [Example 1, 4-(3,4-Dichloro-phenyl)-thiomorpholin-3-one]
